Assay results as given in PMC9775191, “A Subset Screen of the Compounds Australia Scaffold Library Identifies 7-Acylaminodibenzoxazepinones as Potent and Selective Hits for Anti-Giardia Drug Discovery” (Biomedicines, 2022).

tested on: G. duodenalis BRIS/91/HEPU/1279; assay: Primary Giardia screen at 10 µM (live-cell imaging, automated counting); format: cell-based, Giardia duodenalis; details: 24 h
Protocol: Each compound was assessed in singlicate, at a final concentration of 10 μM (0.4 μL of a 5 mM stock; diluted to a final volume of 200 μL in culture medium; 0.2% DMSO). […] Plates were incubated in sealed chambers filled with 3% O2, 5% CO2 in N2 and growth was assessed at 24 and 48 h using live cell imaging and automated counting as previously described. Growth inhibition was calculated by subtracting media only background counts and determining percentage growth relative to vehicle (0.2% DMSO) controls. The reliability of these assays was assessed by calculating Z’ factors for each plate as previously described.

SMILES	Average % Inhibition 24h [%]
O=C(NCc1ccco1)c1cnn2c1N[C@@H](c1ccc(Br)cc1)C[C@H]2C(F)(F)F (relative stereo) [SN00783428]	15.1
Cc1ccc([C@@H]2C[C@H](c3ccccc3)n3nnnc3N2)cc1 (relative stereo) [SN00783518]	10.7
CC(=O)c1c(C)[nH]c(C(=O)Nc2nc(-c3ccco3)c(-c3ccco3)s2)c1C [SN00769770]	25.0
Cc1nnc(CN2CCN(CC(O)COCc3ccco3)CC2)n1C (centres unmarked) [SN00772332]	0.0
Cc1ccccc1C1CCCN1Cc1nc2c(cnn2C)c(=O)[nH]1 (centres unmarked) [SN00772523]	0.0

same assay, conditions: 24 h, first singlicate assay

SMILES	% Inhibition n=1 24h [%]
O=C(NCc1ccco1)c1cnn2c1N[C@@H](c1ccc(Br)cc1)C[C@H]2C(F)(F)F (relative stereo) [SN00783428]	27.8
Cc1ccc([C@@H]2C[C@H](c3ccccc3)n3nnnc3N2)cc1 (relative stereo) [SN00783518]	21.3
CC(=O)c1c(C)[nH]c(C(=O)Nc2nc(-c3ccco3)c(-c3ccco3)s2)c1C [SN00769770]	21.9
Cc1nnc(CN2CCN(CC(O)COCc3ccco3)CC2)n1C (centres unmarked) [SN00772332]	0.0
Cc1ccccc1C1CCCN1Cc1nc2c(cnn2C)c(=O)[nH]1 (centres unmarked) [SN00772523]	0.0

same assay, conditions: 24 h, re-assessment

SMILES	% Inhibition n=2 24h [%]
O=C(NCc1ccco1)c1cnn2c1N[C@@H](c1ccc(Br)cc1)C[C@H]2C(F)(F)F (relative stereo) [SN00783428]	2.5
Cc1ccc([C@@H]2C[C@H](c3ccccc3)n3nnnc3N2)cc1 (relative stereo) [SN00783518]	0.0
CC(=O)c1c(C)[nH]c(C(=O)Nc2nc(-c3ccco3)c(-c3ccco3)s2)c1C [SN00769770]	28.1
Cc1nnc(CN2CCN(CC(O)COCc3ccco3)CC2)n1C (centres unmarked) [SN00772332]	0.0
Cc1ccccc1C1CCCN1Cc1nc2c(cnn2C)c(=O)[nH]1 (centres unmarked) [SN00772523]	0.0

same assay, conditions: 48 h

SMILES	Average % Inhibition 48h [%]
O=C(NCc1ccco1)c1cnn2c1N[C@@H](c1ccc(Br)cc1)C[C@H]2C(F)(F)F (relative stereo) [SN00783428]	18.5
Cc1ccc([C@@H]2C[C@H](c3ccccc3)n3nnnc3N2)cc1 (relative stereo) [SN00783518]	20.0
CC(=O)c1c(C)[nH]c(C(=O)Nc2nc(-c3ccco3)c(-c3ccco3)s2)c1C [SN00769770]	52.7
Cc1nnc(CN2CCN(CC(O)COCc3ccco3)CC2)n1C (centres unmarked) [SN00772332]	28.5
Cc1ccccc1C1CCCN1Cc1nc2c(cnn2C)c(=O)[nH]1 (centres unmarked) [SN00772523]	28.2

same assay, conditions: 48 h, first singlicate assay

SMILES	% Inhibition n=1 48h [%]
O=C(NCc1ccco1)c1cnn2c1N[C@@H](c1ccc(Br)cc1)C[C@H]2C(F)(F)F (relative stereo) [SN00783428]	35.3
Cc1ccc([C@@H]2C[C@H](c3ccccc3)n3nnnc3N2)cc1 (relative stereo) [SN00783518]	40.1
CC(=O)N1N=C2C3CCN(CC3)[C@@H]2[C@@H]1c1cccc2ccccc12 (relative stereo) [SN00783777]	0.0
COc1cccc([C@H]2C[C@@H](C(F)(F)F)n3ncc(C(=O)N4CCCCC4)c3N2)c1 (relative stereo) [SN00783803]	0.0
CCc1ccc(NC(=O)[C@@H]2c3cc(OC)c(OC)cc3C(=O)N3CCCC[C@@H]23)cc1 (relative stereo) [SN00784165]	28.1
O=C(NCc1ccccc1Cl)[C@H]1[C@H]2C(=O)N(Cc3cccs3)C[C@]23C=C[C@H]1O3 (relative stereo) [SN00784242]	22.4
CCCNC(=O)[C@@H]1[C@@H]2C=C[C@@]3(CN(Cc4ccccc4Cl)C(=O)[C@H]13)O2 (relative stereo) [SN00784246]	16.0
CCCN(C(=O)c1cccc(NC(=O)[C@H]2[C@@H]3C[C@@H]4[C@H]2C(=O)O[C@@H]4C3)c1)c1ccccc1F (relative stereo) [SN00785932]	2.8
Cc1ccc(S(=O)(=O)[C@H]2CS(=O)(=O)C[C@@H]2N2CCC(C(N)=O)CC2)cc1 (relative stereo) [SN00786616]	0.0
CSc1ccc(NC(=O)N2C[C@@H]3C[C@H]2C[C@@H]3NC(=O)c2cccs2)cc1 (relative stereo) [SN00800991]	17.8
C[C@@]1(O)CCN(C(=O)c2cccc(F)c2)C[C@H]1N1CCCC1 (relative stereo) [SN00801211]	0.0
CN(C[C@@]12CCC[C@H]1N(C)C(=O)CC2)C(=O)c1ccc2c(c1)OCO2 (relative stereo) [SN00801319]	28.7
CNC(=O)N1C[C@@H](CN(C)C)[C@@H](C2CCN(CCC(C)C)CC2)C1 (relative stereo) [SN00801505]	0.0
COc1ccc(-c2nc(CN3C(=O)C(=O)N(C(C)C)C3=O)cs2)cc1 [SN00769384]	0.0
Cc1oc(-c2ccccc2)nc1C(=O)N1CCN(S(=O)(=O)c2ccc(Br)s2)CC1 [SN00769595]	23.5
O=C(C1CCCN(c2cnccn2)C1)N1CCN(Cc2cccs2)CC1 (centres unmarked) [SN00769722]	17.2
CC(C)(C)OC(=O)N1CCN(C(=O)C2CCCNC2)CC1 (centres unmarked) [SN00769730]	15.1
CC(=O)c1c(C)[nH]c(C(=O)Nc2nc(-c3ccco3)c(-c3ccco3)s2)c1C [SN00769770]	59.6
O=C(Nc1nc(-c2cc3ccccc3oc2=O)cs1)c1cccc(C(F)(F)F)c1 [SN00769798]	0.0
CC(NC(=O)C1CCOCC1)c1nc(-c2cccnc2)cs1 (centres unmarked) [SN00769908]	0.0
O=C(c1ccc(Cl)c(S(=O)(=O)NCC2CCCO2)c1)N1CC=C(c2ccccc2)CC1 (centres unmarked) [SN00769948]	6.8
O=C(C1CCN(S(=O)(=O)c2ccccc2)CC1)N1CC=C(c2ccccc2)CC1 [SN00769994]	0.0
CC(C)(C)C(=O)N1CCC(C(=O)N2CC=C(c3ccc(F)cc3)CC2)CC1 [SN00770003]	0.0

SMILES	% Inhibition n=1 48h [%]
O=C(/C=C/c1cccc([N+](=O)[O-])c1)Nc1ccc2c(c1)nc1n2CCCCC1 [SN00770035]	0.0
c1ccc(-n2nnnc2N2CCN(C3CC3)CC2)cc1 [SN00770081]	0.0
Cc1ccccc1C(=O)N1CCN(C(=O)c2[nH]nc3ccccc23)CC1 [SN00770261]	25.4
CC(C)n1ncc2c(C(=O)N3CCC(NS(=O)(=O)c4cccs4)CC3)cc(C3CC3)nc21 [SN00770479]	0.0
CN1CCN(Cc2nc3ccccc3c(=O)n2Cc2nc(-c3cccc([N+](=O)[O-])c3)cs2)CC1 [SN00770541]	11.4
Cc1cc2n(CC(O)COc3ccccc3F)c(=O)c3ccccc3n2n1 (centres unmarked) [SN00770617]	17.7
Cc1csc(/C(=C\c2cc(C)n(-c3ccnn3C(C)C)c2C)CN)n1 [SN00770781]	5.0
NC(=O)c1cn(Cc2nc(-c3ccoc3)no2)nc1-c1ccccc1 [SN00770936]	0.0
c1cncc(-c2nc(Sc3nnnn3CC3CCCO3)c3ccccc3n2)c1 (centres unmarked) [SN00771230]	11.8
Cc1cc2nc(Sc3nnnn3CC3CCCO3)c3ccccc3n2n1 (centres unmarked) [SN00771233]	16.5
CCC1c2ccsc2CCN1C(=O)C1CCN(S(=O)(=O)c2ccc(Cl)c([N+](=O)[O-])c2)CC1 (centres unmarked) [SN00771236]	27.8
CC1(c2ccco2)NC(=O)N(CC(=O)c2ccccc2)C1=O (centres unmarked) [SN00771276]	12.8
CC1(c2ccco2)NC(=O)N(NC(=O)c2sc3ccccc3c2Cl)C1=O (centres unmarked) [SN00771283]	16.0
CCc1ccccc1Nc1nc(N)nc(CN2CCCN(S(=O)(=O)c3ccc(C)cc3)CC2)n1 [SN00771296]	10.0
COc1ccc(CN2CCCN(C(=O)c3cn4ccc(C)cc4n3)CC2)cc1 [SN00771379]	0.0
Cc1cc(C(=O)N2CCCN(c3cccnn3)CC2)c(C)n1C(C)C [SN00771426]	0.0
CCn1ccnc1CN1CCCN(C(=O)c2cnc(C)cn2)CC1 [SN00771476]	10.9
C/C=C/c1ccc(OCC(=O)N2CCCN(C(=O)C3CCCC3)CC2)c(OC)c1 [SN00771493]	16.5
CC(=O)N1CCCN(Cc2ncc(Cl)n2C)CC1 [SN00771536]	46.7
COC(=O)CNC(=O)c1cn(-c2ccc(C(F)(F)F)cn2)nn1 [SN00771716]	0.0
c1ccc2sc(N3CCCC3c3nnc4n3CCCCC4)nc2c1 (centres unmarked) [SN00771886]	12.0
Cn1ncc2c(NC3CCN(Cc4ccncc4)CC3)ncnc21 [SN00771916]	0.0
O=C(C(c1ccccc1)c1ccccc1)N1CCCC(c2nnc3n2CCCCC3)C1 (centres unmarked) [SN00771924]	8.5

SMILES	% Inhibition n=1 48h [%]
COc1cccc(CCC(=O)N2CCCC(c3nnc4n3CCCCC4)C2)c1 (centres unmarked) [SN00771943]	2.6
CSc1ccc(Cl)c(C(=O)N2CCCN(C(=O)c3ccncc3)CC2)c1 [SN00771952]	45.6
O=C(COc1ccccc1)N1CCCN(c2cccnn2)CC1 [SN00772032]	1.9
Cc1ccc(N2CCCN(C(=O)CN(C)C3CC3)CC2)nn1 [SN00772050]	11.9
O=C(Nc1ccccc1)N1CCCC1CN1CCCCC1 (centres unmarked) [SN00772093]	16.8
O=C(NCc1ccc(F)cc1)N1CCCCC1c1nc(-c2ccccc2)no1 (centres unmarked) [SN00772110]	0.0
O=C(CCN1C(=O)CCC1=O)N1CCCC(N2CCCCCC2)C1 (centres unmarked) [SN00772233]	7.1
CC(=O)c1c(C)[nH]c(C(=O)N2CCCC2c2nc(-c3cccc(C(F)(F)F)c3)c[nH]2)c1C (centres unmarked) [SN00772247]	17.0
Cc1nn(C)c(N2CCN(C(C)c3nc4ccccc4s3)CC2)c1[N+](=O)[O-] (centres unmarked) [SN00772279]	10.6
Cc1nnc(CN2CCN(CC(O)COCc3ccco3)CC2)n1C (centres unmarked) [SN00772332]	57.1
CCOC(=O)c1ccsc1NC(=O)CN1CCNC(=O)CC1c1ccccc1 (centres unmarked) [SN00772435]	0.0
CC(C)(C)NS(=O)(=O)c1ccc(N2CCC(c3nnc4n3CCC4)CC2)c([N+](=O)[O-])c1 [SN00772456]	4.6
Cn1ncc2c(=O)[nH]c(CN3CCCC3Cc3ccccc3)nc21 (centres unmarked) [SN00772513]	21.0
Cc1ccccc1C1CCCN1Cc1nc2c(cnn2C)c(=O)[nH]1 (centres unmarked) [SN00772523]	56.4
Cc1ccc(S(=O)(=O)N2CCC[C@H]2C(=O)N2CCN(CC(=O)Nc3cccc(C)c3C)CC2)cc1 [SN00772546]	7.6
Cc1nc(C2CCN(CC(=O)NC(c3ccc(F)cc3)c3cccs3)CC2)n[nH]1 (centres unmarked) [SN00772581]	24.6
O=C(CCN1CCC(c2n[nH]c(C3CC3)n2)CC1)Nc1ccccc1 [SN00772586]	28.6
COC(=O)c1ccc(F)c(S(=O)(=O)NC2(c3nc(C)cs3)CCC2)c1 [SN00772601]	27.1
Cc1csc(C2(NC(=O)Nc3ccc4c(c3)CCO4)CCC2)n1 [SN00772607]	20.7
Cn1c(=O)c2cc(C(=O)NC3CCSC3=O)n(Cc3ccccc3)c2n(C)c1=O (centres unmarked) [SN00772623]	25.0
CCCCOC(=O)c1ccc(NC(=O)c2cc3c(=O)n(C)c(=O)n(C)c3n2CCC)cc1 [SN00772629]	16.7

same assay, conditions: 48 h, re-assessment

SMILES	% Inhibition n=2 48h [%]
O=C(NCc1ccco1)c1cnn2c1N[C@@H](c1ccc(Br)cc1)C[C@H]2C(F)(F)F (relative stereo) [SN00783428]	1.8
Cc1ccc([C@@H]2C[C@H](c3ccccc3)n3nnnc3N2)cc1 (relative stereo) [SN00783518]	0.0
CC(=O)c1c(C)[nH]c(C(=O)Nc2nc(-c3ccco3)c(-c3ccco3)s2)c1C [SN00769770]	45.9
Cc1nnc(CN2CCN(CC(O)COCc3ccco3)CC2)n1C (centres unmarked) [SN00772332]	0.0
Cc1ccccc1C1CCCN1Cc1nc2c(cnn2C)c(=O)[nH]1 (centres unmarked) [SN00772523]	0.0
